Laboratory results from patent US9771369B2, “Compounds and methods for kinase modulation, and indications therefor” (Plexxikon Inc., priority 2014, dated 2017).

Columns and labels:
c-Kit kinase = c-Kit kinase (Homo sapiens (Human), UniProt P10721); assay: c-Kit biochemical assay (AlphaScreen kinase activity)
Procedure, shortened: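 IC50 values come from 8-point, 1:3 compound titrations measuring inhibition of peptide phosphorylation by c-Kit (commercial or His-tagged E. coli-expressed) over 1 h at room temperature, read by AlphaScreen PY30/streptavidin beads. Low-ATP version: 10 μM ATP, 100 nM biotin-(E4Y)3; high-ATP version: 100 μM ATP, 30 nM biotin-(E4Y)10.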

[1] = tested on: BaF3-FL KIT D816V or BaF3-FL KIT V560G/D816V cell line; assay: Cell-based assays of c-Kit mutant kinase activity (cell proliferation, ATPlite); details: at least one of the c-kit cell assays of Example 7
Procedure, shortened: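 BaF3 cells dependent on transfected full-length human KIT D816V or V560G/D816V (pCI-Neo, CMV promoter) were seeded at 1×10^4 cells/well and exposed to 8-point 1:3 dilutions from 10 μM top (0.2% DMSO) for three days at 37° C. ATPlite luminescence gave cell number; IC50 from concentration-response.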

Chain of c-Kit kinase (P10721 26-976): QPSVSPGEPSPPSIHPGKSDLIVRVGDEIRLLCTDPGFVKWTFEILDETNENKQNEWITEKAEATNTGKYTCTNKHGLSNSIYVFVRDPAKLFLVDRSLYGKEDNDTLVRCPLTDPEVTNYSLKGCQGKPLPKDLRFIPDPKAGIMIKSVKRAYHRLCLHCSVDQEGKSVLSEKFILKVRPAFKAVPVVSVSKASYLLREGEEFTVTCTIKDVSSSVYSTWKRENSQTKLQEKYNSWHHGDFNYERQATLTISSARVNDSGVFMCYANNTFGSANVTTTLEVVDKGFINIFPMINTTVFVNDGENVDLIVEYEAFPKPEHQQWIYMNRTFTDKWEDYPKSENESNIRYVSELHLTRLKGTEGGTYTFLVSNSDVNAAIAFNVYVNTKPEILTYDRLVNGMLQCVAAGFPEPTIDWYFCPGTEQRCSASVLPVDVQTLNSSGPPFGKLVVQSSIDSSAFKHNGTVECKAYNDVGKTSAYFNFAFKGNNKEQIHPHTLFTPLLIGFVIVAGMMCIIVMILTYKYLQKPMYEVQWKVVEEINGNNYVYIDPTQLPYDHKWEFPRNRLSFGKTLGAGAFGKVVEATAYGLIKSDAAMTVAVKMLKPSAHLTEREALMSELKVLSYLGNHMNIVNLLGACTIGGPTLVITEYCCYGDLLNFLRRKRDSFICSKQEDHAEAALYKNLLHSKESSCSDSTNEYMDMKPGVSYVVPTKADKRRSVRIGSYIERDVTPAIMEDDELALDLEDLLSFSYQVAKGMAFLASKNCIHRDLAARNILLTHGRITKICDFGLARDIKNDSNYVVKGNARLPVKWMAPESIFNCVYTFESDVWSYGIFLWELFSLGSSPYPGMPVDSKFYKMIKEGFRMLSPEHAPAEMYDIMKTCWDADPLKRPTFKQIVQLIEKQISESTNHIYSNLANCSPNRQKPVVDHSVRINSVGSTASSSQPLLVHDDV

SMILES	IC50 (c-Kit kinase) [µM]	IC50 [1] [µM]
COc1ccc(-c2[nH]c(C3(C)CCN(c4ncnc5[nH]c(-c6ccc(C(N)=O)cc6)cc45)CC3)nc2C)cc1C [P-3216, 4-[4-[4-[5-(4-methoxy-3-methyl-phenyl)-4-methyl-1H-imidazol-2-yl]-4-methyl-1-piperidyl]-7H-pyrrolo[2,3-d]pyrimidin-6-yl]benzamide]	0.0001 to 1	< 10
COc1ccc(-c2[nH]c(C3(C)CCN(c4ncnc5[nH]c(-c6ccc(OCC(=O)O)cc6)cc45)CC3)nc2C)cc1C [P-3217, 2-[4-[4-[4-[5-(4-methoxy-3-methyl-phenyl)-4-methyl-1H-imidazol-2-yl]-4-methyl-1-piperidyl]-7H-pyrrolo[2,3-d]pyrimidin-6-yl]phenoxy]acetic acid]	0.0001 to 1	< 10
CNC(=O)c1ccc(-c2cc3c(N4CCC(C)(c5nc(C)c(-c6ccc(OC)c(C)c6)[nH]5)CC4)ncnc3[nH]2)cn1 [P-3218, 5-[4-[4-[5-(4-methoxy-3-methyl-phenyl)-4-methyl-1H-imidazol-2-yl]-4-methyl-1-piperidyl]-7H-pyrrolo[2,3-d]pyrimidin-6-yl]-N-methyl-pyridine-2-carboxamide]	0.0001 to 1	< 10
COc1ccc(-c2[nH]c(C3(C)CCN(c4ncnc5[nH]c(-c6ccc(N7CCOCC7)nc6)cc45)CC3)nc2C)cc1C [P-3219, 4-[5-[4-[4-[5-(4-methoxy-3-methyl-phenyl)-4-methyl-1H-imidazol-2-yl]-4-methyl-1-piperidyl]-7H-pyrrolo[2,3-d]pyrimidin-6-yl]-2-pyridyl]morpholine]	0.0001 to 1	< 10
CNC(=O)c1ccc(-c2cc3c(N4CCC(C)(c5nc(C)c(-c6ccc(OC)c(F)c6)[nH]5)CC4)ncnc3[nH]2)cn1 [P-3220, 5-[4-[4-[5-(3-fluoro-4-methoxy-phenyl)-4-methyl-1H-imidazol-2-yl]-4-methyl-1-piperidyl]-7H-pyrrolo[2,3-d]pyrimidin-6-yl]-N-methyl-pyridine-2-carboxamide]	0.0001 to 1	< 10
COc1cccc(-c2[nH]c(C3(C)CCN(c4ncnc5[nH]c(-c6ccc(OCC(=O)O)cc6)cc45)CC3)nc2C)c1 [P-3221, 2-[4-[4-[4-[5-(3-methoxyphenyl)-4-methyl-1H-imidazol-2-yl]-4-methyl-1-piperidyl]-7H-pyrrolo[2,3-d]pyrimidin-6-yl]phenoxy]acetic acid]	0.0001 to 1	< 10
CNC(=O)c1ccc(-c2cc3c(N4CCC(C)(c5nc(C)c(-c6cccc(OC)c6)[nH]5)CC4)ncnc3[nH]2)cn1 [P-3222, 5-[4-[4-[5-(3-methoxyphenyl)-4-methyl-1H-imidazol-2-yl]-4-methyl-1-piperidyl]-7H-pyrrolo[2,3-d]pyrimidin-6-yl]-N-methyl-pyridine-2-carboxamide]	0.0001 to 1	< 10
COc1cccc(-c2[nH]c(C3(C)CCN(c4ncnc5[nH]c(-c6ccc(N7CCOCC7)nc6)cc45)CC3)nc2C)c1 [P-3223, 4-[5-[4-[4-[5-(3-methoxyphenyl)-4-methyl-1H-imidazol-2-yl]-4-methyl-1-piperidyl]-7H-pyrrolo[2,3-d]pyrimidin-6-yl]-2-pyridyl]morpholine]	0.0001 to 1	< 10
CCOc1ccc(-c2[nH]c(C3(C)CCN(c4ncnc5[nH]c(-c6ccc(OCC(=O)O)cc6)cc45)CC3)nc2C)cc1 [P-3224, 2-[4-[4-[4-[5-(4-ethoxyphenyl)-4-methyl-1H-imidazol-2-yl]-4-methyl-1-piperidyl]-7H-pyrrolo[2,3-d]pyrimidin-6-yl]phenoxy]acetic acid]	0.0001 to 1	< 10
COc1cccc(-c2[nH]c(C3(C)CCN(c4ncnc5[nH]c(-c6ccc(C(N)=O)cc6)cc45)CC3)nc2C)c1 [P-3225, 4-[4-[4-[5-(3-methoxyphenyl)-4-methyl-1H-imidazol-2-yl]-4-methyl-1-piperidyl]-7H-pyrrolo[2,3-d]pyrimidin-6-yl]benzamide]	0.0001 to 1	< 10
